Source: ChEMBL document CHEMBL1201862, “PubChem BioAssay data set” (2004)
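Protocol summary: plate cells (96-well), add compound at 5 concentrations, incubate 48 h, interpolate endpoints linearly. Here, GI50 denotes the concentration required for 50% inhibition of growth.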 Activity calls are given as the source filed them. Cut-off read from the data, not from the text of the source: active = GI50 up to about 1.1 µM and inactive = higher.

Key:
Assay in all cases: NCI-60 cell line screen, 48 h
[1] = test system: COLO 205
[2] = test system: SW-620
[3] = test system: SK-OV-3
[4] = test system: NCI-H23
[5] = test system: K562
[6] = test system: TK-10
[7] = test system: CAKI-1
[8] = test system: DU-145
[9] = test system: SN12C
[10] = test system: UACC-257
[11] = test system: OVCAR-8
[12] = test system: SNB-19
[13] = test system: UO-31
[14] = test system: U-251
[15] = test system: KM12
[16] = test system: HOP-62
[17] = test system: NCI-H522
[18] = test system: MOLT-4
[19] = test system: EKVX
[20] = test system: Malme-3M

**Q.** Which GI50 [1] does the source give for `C=C1[C@H](OCC(C)C)[C@@H](OCC(C)C)[C@@H](O)C(C)(C)/C=C/[C@H](C)C(=O)[C@@]2(O)C[C@H](C)[C@H](O)[C@@H]2[C@H]1OCC(C)C` here?
**A.** 2.13 µM (inactive)

**Q.** And the GI50 [2]?
**A.** 7.38 µM (inactive)

**Q.** What about the GI50 [3] of the same compound?
**A.** > 7.5 µM (inactive)

**Q.** What about the GI50 [4] of the same compound?
**A.** > 7.5 µM (inactive)

**Q.** And the GI50 [5]?
**A.** 0.538 µM (active)

**Q.** And the GI50 [6]?
**A.** 5.78 µM (inactive)

**Q.** What about the GI50 [7] of the same compound?
**A.** 2.57 µM (inactive)

**Q.** What about the GI50 [8] of the same compound?
**A.** > 7.5 µM (inactive)

**Q.** What about the GI50 [9] of the same compound?
**A.** > 7.5 µM (inactive)

**Q.** And the GI50 [10]?
**A.** > 7.5 µM (inactive)

**Q.** And the GI50 [11]?
**A.** > 7.5 µM (inactive)

**Q.** What about the GI50 [12] of the same compound?
**A.** > 7.5 µM (inactive)

**Q.** What about the GI50 [13] of the same compound?
**A.** 6.52 µM (inactive)

**Q.** What about the GI50 [14] of the same compound?
**A.** > 7.5 µM (inactive)

**Q.** What about the GI50 [15] of the same compound?
**A.** > 7.5 µM (inactive)

**Q.** And the GI50 [16]?
**A.** 1.16 µM (inactive)

**Q.** And the GI50 [17]?
**A.** > 7.5 µM (inactive)

**Q.** What about the GI50 [18] of the same compound?
**A.** 0.676 µM (active)

**Q.** Which results are given for `Cc1ccc(-c2cnc(NC3OC(COC(=O)c4ccccc4)C(OC(=O)c4ccccc4)C(OC(=O)c4ccccc4)C3OC(=O)c3ccccc3)s2)cc1` (stereo not drawn)?
**A.** GI50 [1]: > 100 µM (inactive); GI50 [2]: > 100 µM (inactive); GI50 [19]: > 100 µM (inactive); GI50 [3]: > 100 µM (inactive); GI50 [4]: > 100 µM (inactive); GI50 [6]: > 100 µM (inactive); GI50 [8]: > 100 µM (inactive); GI50 [9]: > 100 µM (inactive); GI50 [10]: 67.9 µM (inactive); GI50 [11]: > 100 µM (inactive); GI50 [12]: > 100 µM (inactive); GI50 [13]: > 100 µM (inactive); GI50 [20]: > 100 µM (inactive); GI50 [14]: > 100 µM (inactive); GI50 [16]: > 100 µM (inactive); GI50 [17]: > 100 µM (inactive); GI50 [18]: > 100 µM (inactive)

**Q.** What does the source list for `NC(CC(O)(c1ccccc1)c1ccccc1)c1ccccc1S` (stereo not drawn)?
**A.** GI50 [1]: 15.4 µM (inactive); GI50 [2]: 16.7 µM (inactive); GI50 [19]: 7.94 µM (inactive); GI50 [3]: 18.7 µM (inactive); GI50 [4]: 18.5 µM (inactive); GI50 [5]: 16.4 µM (inactive); GI50 [6]: 15.7 µM (inactive); GI50 [8]: > 10 µM (inactive); GI50 [9]: 18.8 µM (inactive); GI50 [10]: 18.9 µM (inactive); GI50 [11]: > 10 µM (inactive); GI50 [12]: 16.4 µM (inactive); GI50 [13]: 11.4 µM (inactive); GI50 [20]: 25.7 µM (inactive); GI50 [14]: 15.1 µM (inactive); GI50 [15]: 12.5 µM (inactive); GI50 [16]: 15.7 µM (inactive); GI50 [17]: 16.6 µM (inactive); GI50 [18]: 21.4 µM (inactive)

**Q.** With `COC(=O)[C@@]12CC[C@]1(C(=O)OC)C1C(C)=CC(=O)O[C@@]12C` (stereo partly drawn) as the compound, how does the GI50 [1] read?
**A.** > 100 µM (inactive)

**Q.** What about the GI50 [2] of the same compound?
**A.** > 100 µM (inactive)

**Q.** What about the GI50 [19] of the same compound?
**A.** > 100 µM (inactive)

**Q.** What about the GI50 [3] of the same compound?
**A.** > 100 µM (inactive)

**Q.** What about the GI50 [4] of the same compound?
**A.** > 100 µM (inactive)

**Q.** What about the GI50 [5] of the same compound?
**A.** > 100 µM (inactive)

**Q.** What about the GI50 [6] of the same compound?
**A.** > 100 µM (inactive)

**Q.** What about the GI50 [8] of the same compound?
**A.** > 100 µM (inactive)

**Q.** And the GI50 [9]?
**A.** > 100 µM (inactive)

**Q.** And the GI50 [10]?
**A.** > 100 µM (inactive)

**Q.** And the GI50 [11]?
**A.** > 100 µM (inactive)

**Q.** And the GI50 [12]?
**A.** > 100 µM (inactive)

**Q.** What about the GI50 [13] of the same compound?
**A.** > 100 µM (inactive)

**Q.** What about the GI50 [20] of the same compound?
**A.** > 100 µM (inactive)

**Q.** What about the GI50 [14] of the same compound?
**A.** > 100 µM (inactive)

**Q.** And the GI50 [15]?
**A.** > 100 µM (inactive)

**Q.** And the GI50 [16]?
**A.** > 100 µM (inactive)

**Q.** And the GI50 [17]?
**A.** > 100 µM (inactive)

**Q.** What about the GI50 [18] of the same compound?
**A.** > 100 µM (inactive)

**Q.** How did the GI50 [1] turn out when `O=C1NC(=O)C(C(CC(=O)c2ccc([N+](=O)[O-])cc2)c2ccccc2)C(=O)N1` (stereo not drawn) was run?
**A.** > 100 µM (inactive)

**Q.** And the GI50 [2]?
**A.** 29.2 µM (inactive)

**Q.** What about the GI50 [3] of the same compound?
**A.** > 100 µM (inactive)

**Q.** What about the GI50 [4] of the same compound?
**A.** 20.7 µM (inactive)

**Q.** And the GI50 [5]?
**A.** 60.3 µM (inactive)

**Q.** And the GI50 [6]?
**A.** 0.0471 µM (active)

**Q.** And the GI50 [8]?
**A.** > 100 µM (inactive)

**Q.** What about the GI50 [9] of the same compound?
**A.** > 100 µM (inactive)

**Q.** And the GI50 [10]?
**A.** > 100 µM (inactive)

**Q.** What about the GI50 [11] of the same compound?
**A.** > 100 µM (inactive)

**Q.** What about the GI50 [12] of the same compound?
**A.** 24.8 µM (inactive)

**Q.** What about the GI50 [13] of the same compound?
**A.** > 100 µM (inactive)

**Q.** And the GI50 [20]?
**A.** 0.0334 µM (active)

**Q.** And the GI50 [14]?
**A.** 49.4 µM (inactive)

**Q.** And the GI50 [15]?
**A.** 14.8 µM (inactive)

**Q.** What about the GI50 [16] of the same compound?
**A.** > 100 µM (inactive)

**Q.** What about the GI50 [17] of the same compound?
**A.** 47.2 µM (inactive)

**Q.** What about the GI50 [18] of the same compound?
**A.** 73.3 µM (inactive)

**Q.** Which results are given for `Cc1cc(S(=O)(=O)Nc2n[nH]c(-c3ccc(Cl)cc3)n2)c(SSc2cc(Cl)c(C)cc2S(=O)(=O)Nc2n[nH]c(-c3ccc(Cl)cc3)n2)cc1Cl`?
**A.** GI50 [1]: 25.9 µM (inactive); GI50 [2]: 24.8 µM (inactive); GI50 [19]: 32.5 µM (inactive); GI50 [3]: 39.5 µM (inactive); GI50 [4]: 34.5 µM (inactive); GI50 [5]: 27 µM (inactive); GI50 [6]: 58.3 µM (inactive); GI50 [7]: 34.2 µM (inactive); GI50 [8]: 32.1 µM (inactive); GI50 [9]: 43.6 µM (inactive); GI50 [10]: 61.7 µM (inactive); GI50 [11]: 34.4 µM (inactive); GI50 [13]: 29.4 µM (inactive); GI50 [20]: 46.3 µM (inactive); GI50 [14]: 25.2 µM (inactive); GI50 [15]: 29.2 µM (inactive); GI50 [16]: 54.5 µM (inactive); GI50 [17]: 32.2 µM (inactive); GI50 [18]: 25.8 µM (inactive)

**Q.** What does the source list for `O=[As](O)(O)c1ccc(/N=N/c2ccc([As](=O)(O)O)cc2)cc1`?
**A.** GI50 [2]: > 100 µM (inactive); GI50 [19]: > 100 µM (inactive); GI50 [4]: > 100 µM (inactive); GI50 [5]: > 100 µM (inactive); GI50 [6]: > 100 µM (inactive); GI50 [7]: > 100 µM (inactive); GI50 [8]: > 100 µM (inactive); GI50 [9]: > 100 µM (inactive); GI50 [10]: > 100 µM (inactive); GI50 [11]: > 100 µM (inactive); GI50 [12]: > 100 µM (inactive); GI50 [13]: > 100 µM (inactive); GI50 [20]: > 100 µM (inactive); GI50 [14]: > 100 µM (inactive); GI50 [15]: > 100 µM (inactive); GI50 [16]: > 100 µM (inactive); GI50 [17]: > 100 µM (inactive); GI50 [18]: > 100 µM (inactive)
